# In US9018192B2, “Unitary pharmaceutical dosage form” (Bristol-Myers Squibb & Gilead Sciences, LLC, priority 2005, dated 2015):
# Where a name gives a salt, the structure may show the parent alone.
# Experiment: chemical stability of tenofovir DF in the dosage form (stability studies)
# Format: physicochemical
compound,measurement,setting,value
"CC(C)OC(=O)OCOP(=O)(CO[C@H](C)Cn1cnc2c(N)ncnc21)OCOC(=O)OC(C)C [tenofovir DF, tenofovir disoproxil fumarate]",compatibility of efavirenz formulation with tenofovir DF,attributed to the surfactant sodium lauryl sulfate in the efavirenz portion,unexpectedly incompatible
same,stability of tenofovir DF in preparation,"increased proportion of excipients, wet granulation of the three API combination",highly unstable
same,stability of tenofovir DF in combination tablet,"three drugs in unitary, essentially homogeneous composition manufactured by wet granulation, stability studies",highly unstable and rapidly degraded
